Assay: xn = mol fraction of the nth substance listed

CC(=O)OC(C)C + Cc1cc(C)cc(C)c1
308.15 K, 101 kPa
Conditions | viscosity [mPa·s]
x2 = 0.09942 | 0.4428
x2 = 0.197 | 0.4556
x2 = 0.3029 | 0.4738
x2 = 0.3917 | 0.4812
x2 = 0.4993 | 0.5032
x2 = 0.5992 | 0.5127
x2 = 0.6918 | 0.5289
x2 = 0.7944 | 0.539
x2 = 0.9024 | 0.5596

CC(=O)OC(C)C + Cc1ccc(C)cc1
viscosity [mPa·s], 101 kPa
Conditions | 303.15 K | 308.15 K | 313.15 K
x1 = 0.0984 | 0.554 | – | 0.502
x1 = 0.2017 | 0.541 | – | 0.489
x1 = 0.3126 | 0.527 | – | 0.476
x1 = 0.4038 | 0.515 | – | 0.465
x1 = 0.5039 | 0.505 | – | 0.455
x1 = 0.6015 | 0.495 | – | 0.446
x1 = 0.7028 | 0.487 | – | 0.437
x1 = 0.8113 | 0.477 | – | 0.427
x1 = 0.9523 | 0.464 | – | 0.417
x2 = 0.1061 | – | 0.4401 | –
x2 = 0.2201 | – | 0.4568 | –
x2 = 0.2975 | – | 0.4636 | –
x2 = 0.3892 | – | 0.4726 | –
x2 = 0.4985 | – | 0.4819 | –
x2 = 0.5821 | – | 0.4898 | –
x2 = 0.696 | – | 0.5019 | –
x2 = 0.7973 | – | 0.5123 | –
x2 = 0.8976 | – | 0.5215 | –

CC(=O)OCC(C)C + Cc1ccc(C)cc1
viscosity [mPa·s], 101 kPa
Conditions | x1 = 0.1104 | x1 = 0.1976 | x1 = 0.2789 | x1 = 0.376 | x1 = 0.4687 | x1 = 0.5742 | x1 = 0.6833 | x1 = 0.7765 | x1 = 0.8703 | x1 = 0.9481
303.15 K | 0.569 | 0.572 | 0.577 | 0.582 | 0.588 | 0.596 | 0.605 | 0.614 | 0.622 | 0.63
313.15 K | 0.511 | 0.512 | 0.514 | 0.516 | 0.519 | 0.526 | 0.536 | 0.547 | 0.558 | 0.57

CCCCBr + Cc1ccc(C)cc1
308.15 K, 101 kPa
Conditions | viscosity [mPa·s]
x2 = 0.1002 | 0.5174
x2 = 0.2 | 0.5139
x2 = 0.2996 | 0.5114
x2 = 0.3997 | 0.5104
x2 = 0.4329 | 0.5092
x2 = 0.6161 | 0.5084
x2 = 0.7006 | 0.5095
x2 = 0.7996 | 0.5107
x2 = 0.8946 | 0.5121

COCCO + Cc1ccc(C)cc1
viscosity [mPa·s], 101 kPa
Conditions | 298.15 K | 308.15 K
x1 = 0.0528 | 0.626 | 0.549
x1 = 0.1469 | 0.654 | 0.57
x1 = 0.2507 | 0.696 | 0.601
x1 = 0.3484 | 0.746 | 0.639
x1 = 0.4499 | 0.812 | 0.688
x1 = 0.4999 | 0.85 | 0.716
x1 = 0.5542 | 0.897 | 0.75
x1 = 0.6493 | 0.994 | 0.82
x1 = 0.7508 | 1.122 | 0.913
x1 = 0.8478 | 1.274 | 1.021
x1 = 0.9556 | 1.488 | 1.17

CC(=O)OC(C)C + Cc1cccc(C)c1
viscosity [mPa·s], 101 kPa
Conditions | x1 = 0.0998 | x1 = 0.212 | x1 = 0.3176 | x1 = 0.4048 | x1 = 0.5079 | x1 = 0.6118 | x1 = 0.7201 | x1 = 0.8193 | x1 = 0.9305
303.15 K | 0.544 | 0.53 | 0.518 | 0.509 | 0.499 | 0.489 | 0.481 | 0.474 | 0.466
313.15 K | 0.488 | 0.475 | 0.464 | 0.456 | 0.447 | 0.438 | 0.43 | 0.423 | 0.417

CC(=O)OCC(C)C + Cc1cccc(C)c1
viscosity [mPa·s], 101 kPa
Conditions | x1 = 0.094 | x1 = 0.1803 | x1 = 0.2916 | x1 = 0.3889 | x1 = 0.4721 | x1 = 0.5698 | x1 = 0.6807 | x1 = 0.7789 | x1 = 0.8716 | x1 = 0.9307
303.15 K | 0.556 | 0.562 | 0.572 | 0.582 | 0.592 | 0.602 | 0.616 | 0.629 | 0.641 | 0.644
313.15 K | 0.505 | 0.508 | 0.515 | 0.521 | 0.527 | 0.536 | 0.546 | 0.555 | 0.566 | 0.572

CCCC(=O)O + Cc1cccc(O)c1
viscosity [mPa·s], 101 kPa
Conditions | x1 = 0.1119 | x1 = 0.2209 | x1 = 0.3191 | x1 = 0.4306 | x1 = 0.5314 | x1 = 0.6298 | x1 = 0.7257 | x1 = 0.8194 | x1 = 0.9108
298.15 K | 10.28 | 8.292 | 6.808 | 5.408 | 4.362 | 3.51 | 2.822 | 2.272 | 1.845
308.15 K | 6.028 | 5.153 | 4.446 | 3.724 | 3.137 | 2.619 | 2.167 | 1.782 | 1.471
318.15 K | 4.743 | 4.158 | 3.662 | 3.14 | 2.707 | 2.316 | 1.957 | 1.621 | 1.293

CC(CC(C)(C)C)CC(C)(C)CC(C)(C)C (stereo not drawn) + Cc1ccccc1
viscosity [mPa·s], 100 kPa
Conditions | x2 = 0.4498 | x2 = 0.7104 | x2 = 0.8804
298.15 K | 1.499 | 0.946 | 0.684
313.15 K | 1.196 | 0.78 | 0.58

CCCC(C)O (stereo not drawn) + Cc1ccccc1
viscosity [mPa·s], 101 kPa
Conditions | x1 = 0.1002 | x1 = 0.1998 | x1 = 0.2999 | x1 = 0.3994 | x1 = 0.5004 | x1 = 0.6006 | x1 = 0.6993 | x1 = 0.8004 | x1 = 0.8998
303.15 K | 0.5378 | 0.5727 | 0.629 | 0.6912 | 0.7892 | 0.9188 | 1.129 | 1.428 | 1.926
308.15 K | 0.5072 | 0.5384 | 0.5879 | 0.6416 | 0.7284 | 0.836 | 1.012 | 1.259 | 1.656
313.15 K | 0.4802 | 0.5063 | 0.5503 | 0.5965 | 0.6696 | 0.7628 | 0.9099 | 1.114 | 1.435
318.15 K | 0.4548 | 0.4776 | 0.517 | 0.5583 | 0.6236 | 0.7009 | 0.8268 | 0.9944 | 1.26
323.15 K | 0.4322 | 0.4524 | 0.4862 | 0.5226 | 0.5786 | 0.6466 | 0.7539 | 0.8904 | 1.11

CCOC(=O)C(=O)OCC + Cc1ccccc1
viscosity [mPa·s], 101 kPa
Conditions | 303.15 K | 313.15 K | 323.15 K
x1 = 0.0804 | 0.5603 | – | –
x1 = 0.1006 | 0.581 | 0.516 | 0.465
x1 = 0.1644 | 0.5912 | – | –
x1 = 0.2019 | 0.651 | 0.578 | 0.514
x1 = 0.2523 | 0.6413 | – | –
x1 = 0.3013 | 0.725 | 0.646 | 0.571
x1 = 0.3443 | 0.7072 | – | –
x1 = 0.4005 | 0.811 | 0.712 | 0.628
x1 = 0.4403 | 0.7809 | – | –
x1 = 0.502 | 0.907 | 0.788 | 0.691
x1 = 0.5414 | 0.8798 | – | –
x1 = 0.6024 | 1.028 | 0.887 | 0.77
x1 = 0.6481 | 1.007 | – | –
x1 = 0.6988 | 1.151 | 0.988 | 0.855
x1 = 0.7597 | 1.167 | – | –
x1 = 0.7971 | 1.289 | 1.095 | 0.943
x1 = 0.8762 | 1.38 | – | –
x1 = 0.8936 | 1.442 | 1.222 | 1.044

COCCO + Cc1ccccc1
viscosity [mPa·s]
Conditions | 298.15 K | 303.15 K | 308.15 K
101 kPa, x1 = 0.0586 | 0.571 | – | 0.512
101 kPa, x1 = 0.1696 | 0.617 | – | 0.545
101 kPa, x1 = 0.2421 | 0.654 | – | 0.571
101 kPa, x1 = 0.3513 | 0.719 | – | 0.618
101 kPa, x1 = 0.4555 | 0.796 | – | 0.674
101 kPa, x1 = 0.4987 | 0.833 | – | 0.7
101 kPa, x1 = 0.5515 | 0.882 | – | 0.736
101 kPa, x1 = 0.6515 | 0.99 | – | 0.814
101 kPa, x1 = 0.7487 | 1.118 | – | 0.905
101 kPa, x1 = 0.8495 | 1.279 | – | 1.021
101 kPa, x1 = 0.9558 | 1.49 | – | 1.17
101.33 kPa, x1 = 0.1311 | – | 0.566 | –
101.33 kPa, x1 = 0.2283 | – | 0.608 | –
101.33 kPa, x1 = 0.3137 | – | 0.645 | –
101.33 kPa, x1 = 0.4277 | – | 0.716 | –
101.33 kPa, x1 = 0.5253 | – | 0.784 | –
101.33 kPa, x1 = 0.6244 | – | 0.87 | –
101.33 kPa, x1 = 0.7116 | – | 0.954 | –
101.33 kPa, x1 = 0.8018 | – | 1.057 | –
101.33 kPa, x1 = 0.9149 | – | 1.219 | –

CC(=O)OC(C)C + Cc1ccccc1C
viscosity [mPa·s], 101 kPa
Conditions | x1 = 0.1037 | x1 = 0.2009 | x1 = 0.3016 | x1 = 0.4027 | x1 = 0.5048 | x1 = 0.6019 | x1 = 0.7013 | x1 = 0.8041 | x1 = 0.9437
303.15 K | 0.669 | 0.645 | 0.62 | 0.595 | 0.571 | 0.55 | 0.527 | 0.504 | 0.472
313.15 K | 0.596 | 0.573 | 0.552 | 0.53 | 0.509 | 0.489 | 0.47 | 0.45 | 0.424

CC(=O)OCC(C)C + Cc1ccccc1C
viscosity [mPa·s], 101 kPa
Conditions | x1 = 0.0918 | x1 = 0.1798 | x1 = 0.2716 | x1 = 0.3504 | x1 = 0.4528 | x1 = 0.5735 | x1 = 0.6718 | x1 = 0.7786 | x1 = 0.8691 | x1 = 0.9514
303.15 K | 0.694 | 0.688 | 0.681 | 0.675 | 0.667 | 0.659 | 0.653 | 0.648 | 0.644 | 0.641
313.15 K | 0.613 | 0.606 | 0.6 | 0.595 | 0.59 | 0.585 | 0.582 | 0.58 | 0.578 | 0.58
